The text below walks through data of paper PMC11432405, “Development of Novel Alaninamide Derivatives with Anticonvulsant Activity and Favorable Safety Profiles in Animal Models” (International Journal of Molecular Sciences, 2024).

As usually defined, the TD50 is the dose at which the toxic effect under study appears in half of the subjects. A low value points to harm at a small dose. Usually inhibition stands for the percentage by which the read-out fell short of the control. As usually defined, the ED50 is the dose that gives a 50% effect, or the effect in half of the subjects.

Like-named read-outs stand apart in the source and are kept apart here. Some results are limits rather than exact numbers.

The nature of data set [1]: rotarod test (acute neurological toxicity, motor coordination). The class given is in vivo. The conditions noted are these: male, CD-1 (albino Swiss), mouse, in vivo, ip, mice i.p. For orientation: In the rotarod test animals must keep their balance on a rotating rod.
Description: The protective indexes (PIs) were then calculated as the ratio of TD50 to ED50 (PI = TD50/ED50), providing an assessment of the therapeutic window for each compound.
Each group consisted of six animals.
The target of data set [2] is T1, Cav1.2 (h) calcium ion channel (Homo sapiens, UniProt Q13936).
T1 construct: Eurofins Cerep SA / Eurofins Panlabs Discovery Services Taiwan (contract assay)
Nature of the data set: Cav1.2 (h) calcium ion channel cell-based antagonist calcium flux assay. The protocol:
(§1) Binding/functional studies were performed commercially in Cerep Laboratories (Poitiers, France) using testing procedures described elsewhere. The general information is listed in Table S3 in the Supporting Information.
(§2) Table S3. The general information of radioligand binding/functional assays. […]
Cav1.2 (L-type) (h) calcium ion channel cell based antagonist calcium flux assay
(§3) Assays were performed commercially in Eurofins Cerep SA (Celle l’Evescault, France) and Eurofins
(§4) Panlabs Discovery Services Taiwan, Ltd. (New Taipei City, Taiwan), using procedures describe
On the technique in general: A change in cytosolic calcium serves as a functional read-out for many receptors and channels.

A further data set has as its target T2, human recombinant MAO-B (Homo sapiens, UniProt P27338).
T2 construct: purchased Sigma Aldrich
T2 sequence (P27338 1-520): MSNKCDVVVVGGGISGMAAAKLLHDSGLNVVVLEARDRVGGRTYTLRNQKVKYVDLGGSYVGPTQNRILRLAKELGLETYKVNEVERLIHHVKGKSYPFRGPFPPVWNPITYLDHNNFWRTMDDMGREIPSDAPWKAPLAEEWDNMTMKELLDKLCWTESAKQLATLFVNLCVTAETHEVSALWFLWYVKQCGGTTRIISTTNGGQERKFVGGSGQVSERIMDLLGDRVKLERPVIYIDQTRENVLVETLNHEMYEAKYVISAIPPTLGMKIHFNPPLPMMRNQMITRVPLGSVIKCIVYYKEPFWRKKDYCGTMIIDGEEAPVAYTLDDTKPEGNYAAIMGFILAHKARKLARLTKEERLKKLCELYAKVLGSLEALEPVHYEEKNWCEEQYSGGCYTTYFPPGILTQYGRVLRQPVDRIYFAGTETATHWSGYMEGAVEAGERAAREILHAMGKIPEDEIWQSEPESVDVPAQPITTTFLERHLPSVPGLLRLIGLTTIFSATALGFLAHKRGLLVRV
Nature of the data set: fluorometric monoamine oxidase B inhibition assay. The conditions noted are these: read-out: % inhibition MAO-B (1 µM), mean of two independent experiments. In kind it is biochemical.

The test system of data set [3] is Cav1.2 (L-type) (dihydropyridine site). The data set can be described thus: radioligand binding Cav1.2 (L-type) dihydropyridine site. The note with it: 100 µM, rat cerebral cortex. The method, then:
as §1
Table S3. The general information of radioligand binding/functional assays.
Ca2+channel (L, dihydropyridine site) (antagonist radioligand) […]
as §3, §4

In a further data set the target is T3, hERG potassium channel (Homo sapiens, UniProt Q12809).
T3 construct: Cerep Laboratories / Eurofins (contract assay)
The data set can be described thus: radioligand binding potassium channel (hERG). The note with it: HEK-293 cells expressing human recombinant hERG, human recombinant HEK-293 cell, read-out: % Inhibition of Control Specific Binding. The method, then: as §1, §2
(§5) Potassium channel (hERG) […]
as §3, §4
(The hERG channel carries a current that helps repolarise heart muscle cells.)

The next data set addresses T4, Potassium channel (hERG) (Homo sapiens, UniProt Q12809).
T4 construct: Cerep Laboratories / Eurofins (contract assay)
Nature of the data set: radioligand binding potassium channel (hERG). The conditions noted are these: 100 µM, human recombinant HEK-293 cell. The method, then: as §1, §2, §5, §3, §4

A further data set has as its target T5, Cav2.2 N-type (Rattus norvegicus, UniProt P54290).
T5 construct: Rat cerebral cortex; tissue Cerep Laboratories / Eurofins (contract assay); host or cells: rat cerebral cortex
The data set can be described thus: radioligand binding Cav2.2 N-type. The conditions noted are these: rat cerebral cortex, antagonist radioligand. The method, then: as §1, §2
N-type Ca2+ [3H] Gabapentin binding (antagonist radioligand) […]
as §3, §4

Another data set relates to SH-SY5Y cells. Nature of the data set: neurocytotoxicity MTT viability assay. In kind it is cell-based, human. The note with it: 1–50 µM, 24 h. The protocol: To evaluate selected compounds’ hepatocytotoxicity and neurocytotoxicity, a human hepatocellular carcinoma cell line, HepG2 (ATCC® HB-8065™), and a human neuroblastoma cell line, SH-SY5Y (ATCC®, CRL-2266™), were used. Both cell lines were cultured in standard culture conditions (5% CO2, 37 °C, 95% humidity) using Dulbecco′s Modified Eagle′s—Medium (DMEM; Gibco, Thermo Scientific, Waltham, MA, USA) supplemented with 10% (vol/vol) fetal bovine serum (FBS; Gibco, Thermo Scientific, Waltham, MA, USA) and an antibiotic mixture (Penicillin, Streptomycin, Amphotericin B; Gibco, Thermo Scientific, Waltham, MA, USA). Cells were cultured with compounds 5, […], or 39 (1–50 µM) for 24 h and then an MTT (3-(4,5-dimethylthiazol-2-yl)-2,5diphenyltetrazolium bromide, Sigma-Aldrich, St. Louis, MO, USA) viability assay was performed. The formazan crystals were dissolved in DMSO (Sigma-Aldrich, St. Louis, MO, USA), and the absorbance at 570 nm was measured using a microplate reader (SpectraMax® iD3, Molecular Devices, San Jose, CA, USA). The experiment was performed three times in duplicate. Each bar represents the mean (±SEM) percentage of viable cells in comparison to the control (defined as 100% and represented by untreated cells).
Figure 3 The viability of SH-SY5Y cells incubated in the presence of compounds 5, 17, and 39. […] Cell viability was measured using an MTT assay. […]

The subject of another data set is 6 Hz (44 mA) seizures. Nature of the data set: 6 Hz (44 mA) psychomotor seizure model.

T1 sequence (Q13936 whole entry): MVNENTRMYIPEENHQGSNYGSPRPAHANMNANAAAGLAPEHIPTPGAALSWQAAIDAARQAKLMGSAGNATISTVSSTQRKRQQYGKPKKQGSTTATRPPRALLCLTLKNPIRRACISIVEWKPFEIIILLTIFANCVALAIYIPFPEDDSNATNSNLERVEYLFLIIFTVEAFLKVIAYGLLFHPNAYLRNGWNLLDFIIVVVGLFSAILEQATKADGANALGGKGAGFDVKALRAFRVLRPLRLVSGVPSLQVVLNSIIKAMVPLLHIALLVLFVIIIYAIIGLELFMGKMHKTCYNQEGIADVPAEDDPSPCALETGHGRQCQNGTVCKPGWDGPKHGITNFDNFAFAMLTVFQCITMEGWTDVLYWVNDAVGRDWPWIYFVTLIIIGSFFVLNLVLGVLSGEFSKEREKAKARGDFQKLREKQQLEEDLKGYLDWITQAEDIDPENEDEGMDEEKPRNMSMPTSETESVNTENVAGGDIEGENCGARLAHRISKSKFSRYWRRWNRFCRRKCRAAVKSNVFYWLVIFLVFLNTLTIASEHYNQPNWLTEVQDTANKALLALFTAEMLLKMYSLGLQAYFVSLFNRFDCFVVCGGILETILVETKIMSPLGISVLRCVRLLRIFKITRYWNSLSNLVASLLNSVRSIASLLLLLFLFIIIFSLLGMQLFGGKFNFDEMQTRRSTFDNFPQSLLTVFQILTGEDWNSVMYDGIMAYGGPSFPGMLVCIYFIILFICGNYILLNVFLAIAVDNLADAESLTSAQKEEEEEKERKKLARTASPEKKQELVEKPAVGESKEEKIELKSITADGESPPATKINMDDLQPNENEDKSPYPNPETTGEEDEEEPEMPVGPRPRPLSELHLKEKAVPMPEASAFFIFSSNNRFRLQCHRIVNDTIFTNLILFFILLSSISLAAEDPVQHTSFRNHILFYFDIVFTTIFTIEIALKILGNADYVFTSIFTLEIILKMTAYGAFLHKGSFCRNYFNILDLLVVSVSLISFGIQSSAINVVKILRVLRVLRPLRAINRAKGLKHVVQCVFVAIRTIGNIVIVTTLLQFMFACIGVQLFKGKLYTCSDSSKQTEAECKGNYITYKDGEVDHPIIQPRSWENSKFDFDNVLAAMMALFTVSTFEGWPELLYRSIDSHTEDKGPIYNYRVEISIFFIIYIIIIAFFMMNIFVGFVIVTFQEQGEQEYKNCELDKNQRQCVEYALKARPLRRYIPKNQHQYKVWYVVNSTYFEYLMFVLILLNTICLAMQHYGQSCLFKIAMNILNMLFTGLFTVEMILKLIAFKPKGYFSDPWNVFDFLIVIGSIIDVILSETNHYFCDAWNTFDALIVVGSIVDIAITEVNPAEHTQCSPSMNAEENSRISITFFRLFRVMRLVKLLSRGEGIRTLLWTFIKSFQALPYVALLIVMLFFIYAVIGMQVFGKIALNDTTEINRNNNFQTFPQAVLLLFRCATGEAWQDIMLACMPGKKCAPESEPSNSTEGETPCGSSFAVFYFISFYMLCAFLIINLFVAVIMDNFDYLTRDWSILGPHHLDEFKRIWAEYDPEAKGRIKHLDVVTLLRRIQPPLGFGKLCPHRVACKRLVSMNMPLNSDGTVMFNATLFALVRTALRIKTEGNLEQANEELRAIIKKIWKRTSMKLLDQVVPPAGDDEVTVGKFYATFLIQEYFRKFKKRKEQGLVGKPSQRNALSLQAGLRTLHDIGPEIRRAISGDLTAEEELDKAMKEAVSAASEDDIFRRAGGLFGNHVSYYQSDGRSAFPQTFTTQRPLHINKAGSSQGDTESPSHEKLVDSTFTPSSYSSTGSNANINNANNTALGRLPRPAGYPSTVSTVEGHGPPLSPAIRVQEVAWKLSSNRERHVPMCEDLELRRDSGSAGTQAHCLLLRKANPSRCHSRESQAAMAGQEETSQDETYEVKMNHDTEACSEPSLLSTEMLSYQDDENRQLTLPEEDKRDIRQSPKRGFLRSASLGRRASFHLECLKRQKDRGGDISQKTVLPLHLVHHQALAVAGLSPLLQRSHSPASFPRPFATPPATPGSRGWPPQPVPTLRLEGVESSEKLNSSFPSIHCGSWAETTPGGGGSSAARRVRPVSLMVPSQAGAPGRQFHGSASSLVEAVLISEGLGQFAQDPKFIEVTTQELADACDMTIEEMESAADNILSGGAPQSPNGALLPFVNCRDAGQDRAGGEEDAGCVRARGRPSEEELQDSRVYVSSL
T1 sequence (Q08289 whole entry partner): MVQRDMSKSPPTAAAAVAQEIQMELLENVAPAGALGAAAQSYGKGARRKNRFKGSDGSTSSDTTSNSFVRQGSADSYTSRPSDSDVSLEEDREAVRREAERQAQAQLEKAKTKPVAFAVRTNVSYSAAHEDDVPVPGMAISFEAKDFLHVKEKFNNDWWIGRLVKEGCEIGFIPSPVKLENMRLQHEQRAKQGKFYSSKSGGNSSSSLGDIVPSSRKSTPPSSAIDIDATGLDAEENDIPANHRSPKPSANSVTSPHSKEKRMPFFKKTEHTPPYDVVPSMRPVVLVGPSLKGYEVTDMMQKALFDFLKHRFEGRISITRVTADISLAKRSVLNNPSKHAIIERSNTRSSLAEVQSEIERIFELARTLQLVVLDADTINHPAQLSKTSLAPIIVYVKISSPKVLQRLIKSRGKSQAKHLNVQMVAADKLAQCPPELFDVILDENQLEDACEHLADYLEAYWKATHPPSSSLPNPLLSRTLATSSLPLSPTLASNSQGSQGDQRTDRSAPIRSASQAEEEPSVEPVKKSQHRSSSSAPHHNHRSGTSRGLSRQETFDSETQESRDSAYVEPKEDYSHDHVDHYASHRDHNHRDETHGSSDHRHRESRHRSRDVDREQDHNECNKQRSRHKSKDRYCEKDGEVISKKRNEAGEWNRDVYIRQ
T1 sequence (P54289 25-1103 partner): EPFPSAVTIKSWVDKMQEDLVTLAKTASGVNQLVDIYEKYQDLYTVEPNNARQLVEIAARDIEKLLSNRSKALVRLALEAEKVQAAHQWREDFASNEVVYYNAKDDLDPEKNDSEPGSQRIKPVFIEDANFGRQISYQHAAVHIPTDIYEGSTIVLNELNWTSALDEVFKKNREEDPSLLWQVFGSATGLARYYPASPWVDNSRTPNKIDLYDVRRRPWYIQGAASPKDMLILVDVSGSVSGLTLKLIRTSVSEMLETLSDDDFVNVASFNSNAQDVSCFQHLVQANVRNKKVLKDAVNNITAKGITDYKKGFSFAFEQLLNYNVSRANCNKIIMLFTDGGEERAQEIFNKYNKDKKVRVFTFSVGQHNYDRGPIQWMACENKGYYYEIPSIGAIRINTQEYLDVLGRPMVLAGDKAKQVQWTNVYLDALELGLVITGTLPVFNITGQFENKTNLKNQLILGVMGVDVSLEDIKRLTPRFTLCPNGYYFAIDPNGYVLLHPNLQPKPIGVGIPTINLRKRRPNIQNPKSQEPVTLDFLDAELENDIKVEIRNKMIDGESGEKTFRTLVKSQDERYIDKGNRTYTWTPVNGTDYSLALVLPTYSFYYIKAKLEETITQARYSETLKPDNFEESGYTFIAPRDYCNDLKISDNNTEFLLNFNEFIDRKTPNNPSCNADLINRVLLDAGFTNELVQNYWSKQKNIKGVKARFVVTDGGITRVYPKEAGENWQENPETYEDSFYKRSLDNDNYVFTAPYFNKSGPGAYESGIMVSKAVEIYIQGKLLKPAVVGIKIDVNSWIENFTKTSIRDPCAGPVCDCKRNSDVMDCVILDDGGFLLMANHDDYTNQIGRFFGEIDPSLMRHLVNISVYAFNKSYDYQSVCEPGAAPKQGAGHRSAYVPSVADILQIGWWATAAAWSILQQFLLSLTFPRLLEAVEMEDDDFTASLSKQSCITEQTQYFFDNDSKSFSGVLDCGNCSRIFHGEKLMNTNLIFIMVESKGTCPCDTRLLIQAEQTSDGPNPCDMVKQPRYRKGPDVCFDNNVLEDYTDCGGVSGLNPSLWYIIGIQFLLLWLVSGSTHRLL
T5 sequence (P54290 25-944 limits assumed): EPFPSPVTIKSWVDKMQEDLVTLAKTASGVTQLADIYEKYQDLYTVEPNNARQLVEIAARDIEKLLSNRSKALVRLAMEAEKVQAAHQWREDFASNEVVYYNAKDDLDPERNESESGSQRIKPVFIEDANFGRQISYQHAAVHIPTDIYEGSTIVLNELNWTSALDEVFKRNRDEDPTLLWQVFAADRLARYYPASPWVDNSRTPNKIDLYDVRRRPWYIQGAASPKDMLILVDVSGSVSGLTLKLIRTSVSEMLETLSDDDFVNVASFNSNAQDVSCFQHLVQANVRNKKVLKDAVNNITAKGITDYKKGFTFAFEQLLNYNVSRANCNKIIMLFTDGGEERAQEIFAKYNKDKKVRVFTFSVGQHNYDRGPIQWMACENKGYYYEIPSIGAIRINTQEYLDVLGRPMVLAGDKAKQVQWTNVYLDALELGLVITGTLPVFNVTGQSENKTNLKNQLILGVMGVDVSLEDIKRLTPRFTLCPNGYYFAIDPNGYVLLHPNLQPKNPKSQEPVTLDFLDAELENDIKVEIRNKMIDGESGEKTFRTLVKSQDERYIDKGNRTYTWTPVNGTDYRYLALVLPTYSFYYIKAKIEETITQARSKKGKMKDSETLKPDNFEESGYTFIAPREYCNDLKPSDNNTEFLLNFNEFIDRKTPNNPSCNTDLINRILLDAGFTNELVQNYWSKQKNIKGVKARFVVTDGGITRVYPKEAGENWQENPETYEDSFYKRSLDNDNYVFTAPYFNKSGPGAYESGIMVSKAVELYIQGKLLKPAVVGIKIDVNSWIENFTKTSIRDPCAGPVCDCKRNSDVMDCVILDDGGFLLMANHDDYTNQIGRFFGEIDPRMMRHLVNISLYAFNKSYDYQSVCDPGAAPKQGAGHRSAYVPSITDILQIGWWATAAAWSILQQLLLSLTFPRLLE
T5 sequence (P54290 945-1091 limits assumed): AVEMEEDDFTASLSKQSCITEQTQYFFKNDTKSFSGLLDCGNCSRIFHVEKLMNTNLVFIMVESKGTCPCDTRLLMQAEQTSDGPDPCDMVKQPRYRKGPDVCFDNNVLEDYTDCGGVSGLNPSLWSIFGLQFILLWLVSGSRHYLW

As to `CC(C(=O)NCc1ccc(OCc2ccccc2)cc1)N1C(=O)CCC1=O` (stereo not drawn) [Compound 5, N-(4-(benzyloxy)benzyl)-2-(2,5-dioxopyrrolidin-1-yl)propanamide], the TD50 at 0.5 h in data set [1] is greater than 300 mg/kg. For the same compound, the inhibition at 100 µM in data set [2] (HEK293, human recombinant HEK-293 cell, read-out: % Inhibition of Control Agonist Response) is 85%; in data set [2] (read-out: inhibition rate of the Cav1.2 (L-type) calcium channel (text summary of binding and functional assays)) it was greater than 50%; on hERG potassium channel, 4.5%; at Cav2.2 N-type (read-out: % Inhibition of Control Specific Binding) it was 1.1%. Besides, on human recombinant MAO-B, the inhibition at 1 µM is 0%. For the same compound, the “% Inhibition of Control Specific Binding” value is 82.3 (100) % in data set [3], “did not bind” on Potassium channel (hERG) and “no significant interaction” at Cav2.2 N-type (100 µM). The “toxic effect on SH-SY5Y cell viability (MTT)” value in the data set with SH-SY5Y cells was “do not exhibit toxic effects”. The ED50 with 6 Hz (44 mA) seizures (Mus musculus, ip, 0.5 h, read-out: ED50 6 Hz (44 mA)) stood at 201 mg/kg. The “PI (TD50/ED50) 6 Hz (44 mA)” value in the data set with 6 Hz (44 mA) seizures (TD50 rotarod / ED50 6 Hz (44 mA)) is greater than 1.5.
